# Assay results taken from ChEMBL document CHEMBL1201862, “PubChem BioAssay data set” (2004).
# The source made the active and inactive calls.
# Molecular target: T1, RNA-binding protein pos-1 (Caenorhabditis elegans, UniProt G5EF15)
# T1 sequence (G5EF15 whole entry): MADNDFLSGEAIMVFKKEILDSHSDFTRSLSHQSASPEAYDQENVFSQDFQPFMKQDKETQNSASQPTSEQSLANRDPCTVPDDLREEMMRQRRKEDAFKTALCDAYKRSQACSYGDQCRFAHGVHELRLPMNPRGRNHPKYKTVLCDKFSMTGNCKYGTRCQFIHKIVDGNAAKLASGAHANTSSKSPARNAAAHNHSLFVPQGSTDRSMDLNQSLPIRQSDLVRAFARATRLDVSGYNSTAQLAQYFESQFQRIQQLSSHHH
# Test: disruptors of C. elegans POS-1 RNA interaction – biochemical, fluorescence polarization, dose response (AID 1964);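 further: purified POS-1 fused to maltose binding protein made in E. coli; potency of compounds blocking POS-1 binding to fluorescent RNA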
# Settings: not given
row,Structure (SMILES),EC50
1,c1ccc(-c2nc(-c3ccccn3)nc(-c3ccccn3)n2)nc1,31.1 µM (active)
2,CCOC(=O)C1Nc2ccc(C(F)(F)F)cc2C2C=CCC12 (stereo not given),> 300 µM (not active)
3,CC(=O)c1ccc(NC(=O)CSc2nnc(-c3ccncc3)o2)cc1,> 300 µM (not active)
4,N#CC1=C(N)C(C#N)(C#N)C(c2cccnc2)C2COCC=C12 (stereo not given),> 300 µM (not active)
5,CCOC(=O)C1=C(C)N=c2s/c(=C/c3ccc(OCC(=O)O)cc3)c(=O)n2C1c1ccc(OC)cc1OC (stereo not given),85.1 µM (active)

# Tested on: H4
# Test: Luminescence Cell-Based Dose Response HTS to Identify Activators of 5'UTR Stem-Loop Driven Prion Protein mRNA Translation in H4 Neuroglioblastoma Cells. [Related pubchem assays: 1829 (Project Summary), 1814 (Primary HTS)]
# Format: functional
# Settings: Homo sapiens
row,Structure (SMILES),EC50
1,Nc1nc(NC(=O)c2cccs2)nn1-c1ccccc1,> 120 µM (not active)

# Molecular target: T2, Zinc finger protein mex-5 (Caenorhabditis elegans, UniProt Q9XUB2)
# T2 sequence (Q9XUB2 whole entry): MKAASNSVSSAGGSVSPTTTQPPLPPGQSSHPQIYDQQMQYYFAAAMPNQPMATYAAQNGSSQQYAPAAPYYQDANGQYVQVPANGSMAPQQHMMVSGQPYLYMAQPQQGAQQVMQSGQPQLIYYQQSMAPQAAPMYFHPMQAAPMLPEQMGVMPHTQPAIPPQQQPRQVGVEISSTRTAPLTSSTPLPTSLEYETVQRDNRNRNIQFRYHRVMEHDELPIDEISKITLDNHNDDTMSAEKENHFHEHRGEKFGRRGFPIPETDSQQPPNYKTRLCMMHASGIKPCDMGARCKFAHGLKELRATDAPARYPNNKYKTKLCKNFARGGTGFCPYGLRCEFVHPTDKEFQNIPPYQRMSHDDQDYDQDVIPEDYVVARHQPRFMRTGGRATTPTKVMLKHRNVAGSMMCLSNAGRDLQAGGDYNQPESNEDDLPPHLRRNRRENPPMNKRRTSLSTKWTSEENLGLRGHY
# Test: potency of MEX-5 RNA-binding blockers – biochemical, C. elegans, fluorescence polarization, dose response (AID 1960)
# Settings: not given
row,Structure (SMILES),EC50
1,c1ccc(-c2nc(-c3ccccn3)nc(-c3ccccn3)n2)nc1,54.6 µM (active)
2,CCOC(=O)C1Nc2ccc(C(F)(F)F)cc2C2C=CCC12 (stereo not given),> 300 µM (not active)
3,CC(=O)c1ccc(NC(=O)CSc2nnc(-c3ccncc3)o2)cc1,> 300 µM (not active)
4,N#CC1=C(N)C(C#N)(C#N)C(c2cccnc2)C2COCC=C12 (stereo not given),> 300 µM (not active)

# Molecular target: T3, Rac GTPase-activating protein 1 (Homo sapiens, UniProt Q9H0H5)
# T3 sequence (Q9H0H5 whole entry): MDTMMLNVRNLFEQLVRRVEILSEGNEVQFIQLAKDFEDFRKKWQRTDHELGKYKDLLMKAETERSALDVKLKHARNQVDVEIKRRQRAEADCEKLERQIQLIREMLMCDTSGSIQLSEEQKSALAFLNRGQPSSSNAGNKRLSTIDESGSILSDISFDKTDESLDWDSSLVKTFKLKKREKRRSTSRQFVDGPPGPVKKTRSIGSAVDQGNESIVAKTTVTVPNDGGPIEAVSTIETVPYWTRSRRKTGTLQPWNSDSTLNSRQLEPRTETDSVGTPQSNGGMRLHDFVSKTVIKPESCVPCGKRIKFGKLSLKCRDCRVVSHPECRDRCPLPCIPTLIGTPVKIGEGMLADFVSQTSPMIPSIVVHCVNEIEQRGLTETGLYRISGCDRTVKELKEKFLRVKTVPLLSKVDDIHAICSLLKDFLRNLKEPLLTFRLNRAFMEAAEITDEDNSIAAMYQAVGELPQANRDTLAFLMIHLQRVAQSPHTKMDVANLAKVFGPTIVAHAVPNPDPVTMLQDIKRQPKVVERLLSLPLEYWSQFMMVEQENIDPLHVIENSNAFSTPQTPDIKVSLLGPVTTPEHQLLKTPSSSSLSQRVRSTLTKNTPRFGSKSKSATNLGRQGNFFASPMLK
# Test: blockers of MgcRacGAP-driven Rac1 GTP hydrolysis – biochemical, ADP Hunter fluorescence, primary and confirmatory, confirmation (AID 624330)
# Format: functional
# Settings: not given
row,Structure (SMILES),IC50
1,COc1cc(/C=C/C(=O)OCC(=O)NNC(=O)c2cc(Cl)ccc2OC)ccc1O,60.5 µM (active)
2,Cc1ccc(-c2nnc(S)n2/N=C/c2ccc(C(=O)O)cc2)cc1,74.4 µM (active)
3,CCCn1c(=O)c2ccccc2n2c(SCCNCCO)nnc12,52.2 µM (active)
4,Oc1ccccc1CNc1ccc2c(c1)OCCO2,94.9 µM (active)
5,Nc1sc(-c2ccccc2)c(Cc2ccccc2)c1C(=O)O,67.6 µM (active)
6,COc1ccccc1NS(=O)(=O)c1cc(N)ccc1N1CCCC1,47.8 µM (active)
7,CN(C)c1ccc(/C=N\Nc2ccccn2)cc1,31.6 µM (active)
8,CC(C(=O)NC1CCCCC1)N1CCN(C)CC1 (stereo not given),93.7 µM (active)
9,COc1ccc2[nH]c3c(=O)n(Cc4ccc(C(=O)N5CCC(C(N)=O)CC5)cc4)c(=S)[nH]c3c2c1,61.3 µM (active)
10,Oc1ccc(/C=N/Nc2nc(N3CCCC3)nc(N3CCCC3)n2)cc1O,57.3 µM (active)
